Tested on: HBV
Test: HBV inhibition assay: anti-HBV activity in vitro in HepG2.2.15 cells (extracellular HBV DNA by qPCR)
Format: cell-based
Details: Hepatitis B virus, 120 h, five days after compound treatment, extracellular HBV DNA in culture supernatant by qPCR, concentration at which HBV replication is inhibited by 50%
Excerpt: Example 441: HBV Inhibition Assays
Cell Line and Culture Conditions:
HepG2.2.15 is a stably-transfected cell line containing the HBV genome. It is derived from the hepatoblastoma cell line Hep G2 (American Type Culture Collection, ATCC® HB-8065™) by the published procedures described in reference: MA Selles et al. Proc. Natl. Acad. Sci. USA 1987, 84, 1005-1009. The cell line was maintained in Dulbecco's modified Eagle's medium (DMEM)-F12 medium supplemented with 10% fetal bovine serum, 100 U/mL penicillin, 100 μg/mL streptomycin, and 0.5 mg/mL of G418.
Anti-HBV Activity In Vitro:
HepG2.2.15 cells were seeded into 96-well plates (3×10^4 cells in 100 μL media per well) and incubated overnight at 37° C. The test compounds were serially half-log diluted in DMSO, then diluted 100 times in culture media. 100 μL diluted compounds were added into the plates to reach 0.5% final concentration of DMSO in every well. Five days after compound treatment, culture supernatant was collected for further analysis.
For quantitative PCR detection of extracellular HBV DNA, culture supernatant was processed by Proteinase K digestion. After heat inactivation of the enzyme, the samples were subjected to HBV DNA quantification by qPCR. The effective compound concentration at which
HBV replication is inhibited by 50% (EC50) was determined.

Compound	EC50 [nM]
N#Cc1cc(NC(=O)N2CCn3cnc(-c4ccc(F)cc4F)c3C2)ccc1F [Example 136, N-(3-cyano-4-fluoro-phenyl)-1-(2,4-difluorophenyl)-6,8-dihydro-5H-imidazo[1,5-a]pyrazine-7-carboxamide]	56
O=C(Nc1cc(F)c(F)c(F)c1)N1CCn2cnc(-c3ccc(F)cc3F)c2C1 [Example 138, 1-(2,4-difluorophenyl)-N-(3,4,5-trifluorophenyl)-6,8-dihydro-5H-imidazo[1,5-a]pyrazine-7-carboxamide]	37
C#Cc1cc(NC(=O)N2CCn3ncc(-c4ccc(F)cc4F)c3C2)ccc1F [Example 139, 3-(2,4-difluorophenyl)-N-(3-ethynyl-4-fluoro-phenyl)-6,7-dihydro-4H-pyrazolo[1,5-a]pyrazine-5-carboxamide]	46
N#Cc1cc(NC(=O)N2CCn3ncc(-c4ccc(F)cc4F)c3C2)ccc1F [Example 142, N-(3-cyano-4-fluoro-phenyl)-3-(2,4-difluorophenyl)-6,7-dihydro-4H-pyrazolo[1,5-a]pyrazine-5-carboxamide]	56
O=C(Nc1ccc(F)c(C2CC2)c1)N1CCn2ncc(-c3ccc(F)cc3F)c2C1 [Example 150, N-(3-cyclopropyl-4-fluoro-phenyl)-3-(2,4-difluorophenyl)-6,7-dihydro-4H-pyrazolo[1,5-a]pyrazine-5-carboxamide]	58
O=C(Nc1ccc(F)c(Cl)c1)N1CCn2nnc(-c3ccc(F)cc3F)c2C1 [Example 155, N-(3-chloro-4-fluoro-phenyl)-3-(2,4-difluorophenyl)-6,7-dihydro-4H-triazolo[1,5-a]pyrazine-5-carboxamide]	40
Cc1cc(NC(=O)N2Cc3c(-c4ccc(F)cn4)cnn3CC2C)cc(F)c1F (stereo not shown) [Example 156, N-(3,4-difluoro-5-methyl-phenyl)-3-(5-fluoro-2-pyridyl)-6-methyl-6,7-dihydro-4H-pyrazolo[1,5-a]pyrazine-5-carboxamide]	25
CC1Cn2ncc(-c3ccc(F)cn3)c2CN1C(=O)Nc1ccc(F)c(C2CC2)c1 (stereo not shown) [Example 157, N-(3-cyclopropyl-4-fluoro-phenyl)-3-(5-fluoro-2-pyridyl)-6-methyl-6,7-dihydro-4H-pyrazolo[1,5-a]pyrazine-5-carboxamide]	83
CC1Cn2ncc(-c3ccc(F)cn3)c2CN1C(=O)Nc1cc(F)c(F)c(Cl)c1 (stereo not shown) [Example 158, N-(3-chloro-4,5-difluoro-phenyl)-3-(5-fluoro-2-pyridyl)-6-methyl-6,7-dihydro-4H-pyrazolo[1,5-a]pyrazine-5-carboxamide]	44
Cc1cc(NC(=O)N2CCn3cnc(-c4ccc(F)cc4F)c3C2)cc(F)c1F [Example 167, N-(3,4-difluoro-5-methyl-phenyl)-1-(2,4-difluorophenyl)-6,8-dihydro-5H-imidazo[1,5-a]pyrazine-7-carboxamide]	15
O=C(Nc1ccc(F)c(Cl)c1)N1CCn2ncc(N3CCCC3=O)c2C1 [Example 170, N-(3-chloro-4-fluoro-phenyl)-3-(2-oxopyrrolidin-1-yl)-6,7-dihydro-4H-pyrazolo[1,5-a]pyrazine-5-carboxamide]	46
Cc1cnn(-c2cnn3c2CN(C(=O)Nc2ccc(F)c(Cl)c2)CC3)c1 [Example 171, N-(3-chloro-4-fluoro-phenyl)-3-(4-methylpyrazol-1-yl)-6,7-dihydro-4H-pyrazolo[1,5-a]pyrazine-5-carboxamide]	45
CC1Cn2ncc(-c3ccc(F)cc3F)c2CN1C(=O)Nc1ccnc(F)c1 (stereo not shown) [Example 174, 3-(2,4-difluorophenyl)-N-(2-fluoro-4-pyridyl)-6-methyl-6,7-dihydro-4H-pyrazolo[1,5-a]pyrazine-5-carboxamide]	66
Cc1cc(NC(=O)N2CCn3ncc(-c4ccc(F)cc4)c3C2)ccn1 [Example 176, 3-(4-fluorophenyl)-N-(2-methyl-4-pyridyl)-6,7-dihydro-4H-pyrazolo[1,5-a]pyrazine-5-carboxamide]	52
CC1Cn2ncc(-c3ccc(F)cc3F)c2CN1C(=O)Nc1cc(F)c(F)c(F)c1 (stereo not shown) [Example 178, 3-(2,4-difluorophenyl)-6-methyl-N-(3,4,5-trifluorophenyl)-6,7-dihydro-4H-pyrazolo[1,5-a]pyrazine-5-carboxamide]	13
CC1Cn2ncc(N3CCCC3=O)c2CN1C(=O)Nc1cc(F)c(F)c(F)c1 (stereo not shown) [Example 183, 6-methyl-3-(2-oxopyrrolidin-1-yl)-N-(3,4,5-trifluorophenyl)-6,7-dihydro-4H-pyrazolo[1,5-a]pyrazine-5-carboxamide]	68

Compound	EC50 [nM]
C[C@H]1Cn2ncc(-c3ccc(F)cn3)c2CN1C(=O)Nc1cc(F)c(F)c(F)c1 [Example 198, (6S)-3-(5-fluoro-2-pyridyl)-6-methyl-N-(3,4,5-trifluorophenyl)-6,7-dihydro-4H-pyrazolo[1,5-a]pyrazine-5-carboxamide]	30
Cc1cnn(-c2cnn3c2CN(C(=O)Nc2ccc(F)c(Cl)c2)C(C)C3)c1 (stereo not shown) [Example 199, N-(3-chloro-4-fluoro-phenyl)-6-methyl-3-(4-methylpyrazol-1-yl)-6,7-dihydro-4H-pyrazolo[1,5-a]pyrazine-5-carboxamide]	30
CC1Cn2ncc(-n3cc(C#N)cn3)c2CN1C(=O)Nc1ccc(F)c(Cl)c1 (stereo not shown) [Example 200, N-(3-chloro-4-fluoro-phenyl)-3-(4-cyanopyrazol-1-yl)-6-methyl-6,7-dihydro-4H-pyrazolo[1,5-a]pyrazine-5-carboxamide]	38
CC1Cn2ncc(-n3cc(F)cn3)c2CN1C(=O)Nc1ccc(F)c(Cl)c1 (stereo not shown) [Example 201, N-(3-chloro-4-fluoro-phenyl)-3-(4-fluoropyrazol-1-yl)-6-methyl-6,7-dihydro-4H-pyrazolo[1,5-a]pyrazine-5-carboxamide]	13
CC1Cn2ncc(N3CCCC3=O)c2CN1C(=O)Nc1ccc(F)c(Cl)c1 (stereo not shown) [Example 202, N-(3-chloro-4-fluoro-phenyl)-6-methyl-3-(2-oxopyrrolidin-1-yl)-6,7-dihydro-4H-pyrazolo[1,5-a]pyrazine-5-carboxamide]	51
CC1Cn2ncc(N3CCCC3=O)c2CN1C(=O)Nc1ccc(F)c(C(F)(F)F)c1 (stereo not shown) [Example 203, N-[4-fluoro-3-(trifluoromethyl)phenyl]-6-methyl-3-(2-oxopyrrolidin-1-yl)-6,7-dihydro-4H-pyrazolo[1,5-a]pyrazine-5-carboxamide]	97
CC1Cn2ncc(C3CCCC3)c2CN1C(=O)Nc1cc(F)c(F)c(F)c1 (stereo not shown) [Example 204, 3-cyclopentyl-6-methyl-N-(3,4,5-trifluorophenyl)-6,7-dihydro-4H-pyrazolo[1,5-a]pyrazine-5-carboxamide]	36
CC1Cn2ncc(N3CC(C)(C)CC3=O)c2CN1C(=O)Nc1ccc(F)c(Cl)c1 (stereo not shown) [Example 212, N-(3-chloro-4-fluoro-phenyl)-3-(4,4-dimethyl-2-oxo-pyrrolidin-1-yl)-6-methyl-6,7-dihydro-4H-pyrazolo[1,5-a]pyrazine-5-carboxamide]	33
O=C(Nc1ccc(F)c(Cl)c1)N1CCn2ncc(N3CC4CC4C3)c2C1 (stereo not shown) [Example 215, 3-[3-azabicyclo[3.1.0]hexan-3-yl]-N-(3-chloro-4-fluoro-phenyl)-6,7-dihydro-4H-pyrazolo[1,5-a]pyrazine-5-carboxamide]	100
CC1Cn2ncc(-c3ccc(F)cc3F)c2CN1C(=O)Nc1ccnc(C(F)F)c1 (stereo not shown) [Example 218, N-[2-(difluoromethyl)-4-pyridyl]-3-(2,4-difluorophenyl)-6-methyl-6,7-dihydro-4H-pyrazolo[1,5-a]pyrazine-5-carboxamide]	14
C[C@H]1Cn2ncc(N3CC(C#N)CC3=O)c2CN1C(=O)Nc1ccc(F)c(Cl)c1 (stereo partly drawn) [Example 229, (6S)—N-(3-chloro-4-fluoro-phenyl)-3-(4-cyano-2-oxo-pyrrolidin-1-yl)-6-methyl-6,7-dihydro-4H-pyrazolo[1,5-a]pyrazine-5-carboxamide]	47
CC1CN(C(=O)Nc2ccc(F)c(Cl)c2)Cc2c(-c3ccc(F)cc3)cnn21 (stereo not shown) [Example 230, N-(3-chloro-4-fluoro-phenyl)-3-(4-fluorophenyl)-7-methyl-6,7-dihydro-4H-pyrazolo[1,5-a]pyrazine-5-carboxamide]	52
C[C@H]1Cn2ncc(N3CCCC3=O)c2CN1C(=O)Nc1cc(F)c(F)c(Cl)c1 [Example 231, (6S)—N-(3-chloro-4,5-difluoro-phenyl)-6-methyl-3-(2-oxopyrrolidin-1-yl)-6,7-dihydro-4H-pyrazolo[1,5-a]pyrazine-5-carboxamide]	25
C[C@H]1Cn2ncc(N3CC(O)CC3=O)c2CN1C(=O)Nc1ccc(F)c(Cl)c1 (stereo partly drawn) [Example 232, (6S)—N-(3-chloro-4-fluoro-phenyl)-3-(4-hydroxy-2-oxo-pyrrolidin-1-yl)-6-methyl-6,7-dihydro-4H-pyrazolo[1,5-a]pyrazine-5-carboxamide]	49
C[C@H]1Cn2ncc(N3CCOCC3=O)c2CN1C(=O)Nc1cc(F)c(F)c(F)c1 [Example 233, (6S)-6-methyl-3-(3-oxomorpholin-4-yl)-N-(3,4,5-trifluorophenyl)-6,7-dihydro-4H-pyrazolo[1,5-a]pyrazine-5-carboxamide]	76
